From patent US8604036B2, “Pyridazinone derivatives” (Merck Patent GmbH, priority 2008, dated 2013) come the findings set out here.

pIC50: −log10 of the molar value.

For assay [1], the target named is T1, Met kinase (Homo sapiens, UniProt P08581). The experiment in a line: Met kinase inhibition (cell). It counts as cell-based.
Target sequence in this assay (P08581 25-1390): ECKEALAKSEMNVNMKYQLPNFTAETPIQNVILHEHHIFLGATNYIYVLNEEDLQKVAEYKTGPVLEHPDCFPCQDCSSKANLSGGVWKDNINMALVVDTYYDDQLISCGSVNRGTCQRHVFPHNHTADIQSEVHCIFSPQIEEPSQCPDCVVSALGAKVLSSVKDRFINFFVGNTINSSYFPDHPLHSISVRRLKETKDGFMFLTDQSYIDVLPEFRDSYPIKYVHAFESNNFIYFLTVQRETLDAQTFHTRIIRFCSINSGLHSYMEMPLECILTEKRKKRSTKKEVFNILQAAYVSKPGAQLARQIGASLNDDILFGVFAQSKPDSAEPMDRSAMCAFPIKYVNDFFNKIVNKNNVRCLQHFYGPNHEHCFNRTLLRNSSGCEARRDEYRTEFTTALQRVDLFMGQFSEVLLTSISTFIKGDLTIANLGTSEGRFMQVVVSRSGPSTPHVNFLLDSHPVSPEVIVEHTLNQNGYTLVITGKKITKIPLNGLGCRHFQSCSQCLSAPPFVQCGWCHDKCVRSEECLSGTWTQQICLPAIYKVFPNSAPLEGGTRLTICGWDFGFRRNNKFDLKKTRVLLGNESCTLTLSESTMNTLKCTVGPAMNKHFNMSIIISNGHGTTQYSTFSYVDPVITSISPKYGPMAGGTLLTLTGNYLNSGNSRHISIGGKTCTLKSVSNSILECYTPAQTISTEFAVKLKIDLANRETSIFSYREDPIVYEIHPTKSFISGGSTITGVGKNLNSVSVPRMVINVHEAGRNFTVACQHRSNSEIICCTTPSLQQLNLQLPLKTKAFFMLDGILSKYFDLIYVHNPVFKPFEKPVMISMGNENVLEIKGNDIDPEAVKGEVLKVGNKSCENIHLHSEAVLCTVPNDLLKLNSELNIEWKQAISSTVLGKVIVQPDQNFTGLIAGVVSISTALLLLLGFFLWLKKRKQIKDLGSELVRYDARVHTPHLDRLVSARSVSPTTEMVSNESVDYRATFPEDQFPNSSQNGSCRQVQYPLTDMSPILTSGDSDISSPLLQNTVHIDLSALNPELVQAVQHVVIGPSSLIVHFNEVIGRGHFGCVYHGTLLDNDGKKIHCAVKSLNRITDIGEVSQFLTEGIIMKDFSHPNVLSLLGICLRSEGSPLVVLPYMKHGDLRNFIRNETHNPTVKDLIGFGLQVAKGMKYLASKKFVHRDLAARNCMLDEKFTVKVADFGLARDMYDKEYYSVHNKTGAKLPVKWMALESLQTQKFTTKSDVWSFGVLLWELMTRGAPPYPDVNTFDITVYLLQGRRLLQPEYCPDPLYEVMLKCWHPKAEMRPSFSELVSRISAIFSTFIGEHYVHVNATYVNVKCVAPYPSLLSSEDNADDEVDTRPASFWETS
In assay [2] the target is T1, Met kinase. Nature of the assay: Met kinase inhibition, flashplate method (enzyme). Also noted: 6His (N); purchased Upstate 14-526; host or cells: Sf21 insect cells (S. frugiperda), baculovirus. The class given is biochemical. An excerpt: Measurement of Met Kinase Activity
According to the manufacturer's data (Met, active, upstate, catalogue No. 14-526), Met kinase is expressed for the purposes of protein production in insect cells (Sf21; S. frugiperda) and subsequent affinity-chromatographic purification as “N-terminal 6His-tagged” recombinant human protein in a baculovirus expression vector.
Flashplate Method (Met Kinase)
The test plates used are 96-well Flashplate® microtitre plates from Perkin Elmer (Cat. No. SMP200). The components of the kinase reaction described below are pipetted into the assay plate. The Met kinase and the substrate poly Ala-Glu-Lys-Tyr, (pAGLT, 6:2:5:1), are incubated for 3 hrs at room temperature with radioactively labelled ^33P-ATP in the presence and absence of test substances in a total volume of 100 μl. The reaction is terminated using 150 μl of a 60 mM EDTA solution. After incubation for a further 30 min at room temperature, the supernatants are filtered off with suction, and the wells are washed three times with 200 μl of 0.9% NaCl solution each time. The measurement of the bound radioactivity is carried out by means of a scintillation measuring instrument (Topcount NXT, Perkin-Elmer).
The full value used is the inhibitor-free kinase reaction. This should be approximately in the range 6000-9000 cpm. […] The inhibitory values (IC50) are determined using the RS1_MTS program. […]
Target sequence in this assay (P08581 974-1390 limits assumed): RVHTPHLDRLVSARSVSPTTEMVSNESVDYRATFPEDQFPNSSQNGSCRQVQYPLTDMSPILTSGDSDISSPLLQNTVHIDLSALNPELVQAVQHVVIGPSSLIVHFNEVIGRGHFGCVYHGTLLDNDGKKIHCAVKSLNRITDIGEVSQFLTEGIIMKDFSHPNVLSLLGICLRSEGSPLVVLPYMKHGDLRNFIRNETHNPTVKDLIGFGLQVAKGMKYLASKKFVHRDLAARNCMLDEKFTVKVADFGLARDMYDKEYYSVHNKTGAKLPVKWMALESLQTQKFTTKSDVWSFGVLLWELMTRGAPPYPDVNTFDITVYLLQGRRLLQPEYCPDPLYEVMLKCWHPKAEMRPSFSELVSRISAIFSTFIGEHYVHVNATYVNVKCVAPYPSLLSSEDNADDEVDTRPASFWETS

As a reminder, the pIC50 is −log10 of the IC50, conventionally taken in molar units. Read a low pIC50 as a large IC50. `N#Cc1cccc(-c2ccc(=O)n(Cc3cccc(-c4ncc(-c5cnn(CCN6CCCC6)c5)cn4)n3)n2)c1` [Compound A2, 3-[6-oxo-1-(6-{5-[1-(2-pyrrolidin-1-ylethyl)-1H-pyrazol-4-yl]pyrimidin-2-yl}pyridin-2-ylmethyl)-1,6-dihydropyridazin-3-yl]benzonitrile]: the pIC50 at Met kinase [1] was 6.00 to 8.00.

As for `Cc1ccc(-c2cccc(Cn3nc(-c4cc(F)cc(F)c4)ccc3=O)n2)nc1` [Compound A1, 6-(3,5-difluorophenyl)-2-(5′-methyl-[2,2′]bipyridinyl-6-ylmethyl)-2H-pyridazin-3-one], the values for the pIC50 on Met kinase [2] and at Met kinase [1] were 6.00 to 8.00 and 5.00 to 6.00, respectively.
